Structures can show the parent of a compound that is named as a salt.
biological target: cloned human NR1/NR2B ion channels (Homo sapiens (Human), UniProt Q05586+Q13224); test: HNR2BC: effects of test articles on cloned human NR1/NR2B ion channels expressed in mammalian cells (FLIPR calcium flux); type: cell-based; details: cloned human NR1/NR2B, Table 5
Procedure, shortened: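 In a stable Tet-On-induced cell line expressing human GluN1/GluN2B, Calcium 5-loaded cells were preincubated 5 min with compound, then stimulated 5 min with glutamate at ~EC80 plus 10 μM glycine, in pH 7.4 HEPES buffer. FLIPR calcium fluorescence was normalized to control wells.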

cloned human NR1/NR2B ion channels, sequence (Q13224 27-1484, other chains not shown): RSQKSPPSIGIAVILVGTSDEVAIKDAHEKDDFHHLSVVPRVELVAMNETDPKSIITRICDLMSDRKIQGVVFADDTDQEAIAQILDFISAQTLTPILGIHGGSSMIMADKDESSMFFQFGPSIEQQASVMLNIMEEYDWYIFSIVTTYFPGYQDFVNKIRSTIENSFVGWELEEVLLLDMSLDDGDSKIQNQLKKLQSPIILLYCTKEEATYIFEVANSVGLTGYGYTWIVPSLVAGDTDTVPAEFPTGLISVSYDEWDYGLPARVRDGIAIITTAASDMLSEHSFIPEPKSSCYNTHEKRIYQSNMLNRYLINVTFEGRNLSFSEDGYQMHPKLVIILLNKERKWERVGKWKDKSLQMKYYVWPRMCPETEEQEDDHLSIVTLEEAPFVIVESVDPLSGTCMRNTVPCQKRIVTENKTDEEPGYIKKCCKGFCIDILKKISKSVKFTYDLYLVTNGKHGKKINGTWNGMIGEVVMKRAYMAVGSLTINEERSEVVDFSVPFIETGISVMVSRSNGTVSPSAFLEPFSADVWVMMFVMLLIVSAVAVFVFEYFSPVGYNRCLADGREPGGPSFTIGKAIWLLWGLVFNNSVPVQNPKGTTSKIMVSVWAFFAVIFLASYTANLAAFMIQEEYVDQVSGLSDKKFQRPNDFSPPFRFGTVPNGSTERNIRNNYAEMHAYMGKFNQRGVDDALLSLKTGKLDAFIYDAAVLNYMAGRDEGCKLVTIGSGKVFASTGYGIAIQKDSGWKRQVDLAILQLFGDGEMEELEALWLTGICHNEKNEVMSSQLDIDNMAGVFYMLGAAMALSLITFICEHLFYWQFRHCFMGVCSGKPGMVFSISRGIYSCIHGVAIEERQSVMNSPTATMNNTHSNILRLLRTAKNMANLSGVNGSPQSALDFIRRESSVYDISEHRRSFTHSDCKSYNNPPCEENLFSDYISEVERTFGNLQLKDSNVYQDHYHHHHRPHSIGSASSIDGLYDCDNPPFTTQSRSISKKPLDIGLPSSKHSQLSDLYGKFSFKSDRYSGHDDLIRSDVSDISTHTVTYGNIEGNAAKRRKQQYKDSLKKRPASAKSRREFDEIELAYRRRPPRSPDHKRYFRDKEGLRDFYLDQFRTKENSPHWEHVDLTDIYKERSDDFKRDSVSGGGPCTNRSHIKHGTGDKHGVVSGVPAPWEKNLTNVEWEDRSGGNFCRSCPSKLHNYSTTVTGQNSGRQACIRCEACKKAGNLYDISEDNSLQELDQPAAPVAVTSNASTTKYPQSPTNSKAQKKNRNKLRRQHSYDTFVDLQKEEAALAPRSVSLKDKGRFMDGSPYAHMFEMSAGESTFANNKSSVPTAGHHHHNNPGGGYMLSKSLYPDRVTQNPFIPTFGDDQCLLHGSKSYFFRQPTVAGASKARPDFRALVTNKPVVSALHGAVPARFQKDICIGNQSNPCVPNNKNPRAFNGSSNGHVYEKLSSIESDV

First: Cc1cc(-c2cnc3ccn(CC(=O)C(C)(C)C)c3c2)ccc1F [Example 141, 1-[6-(4-Fluoro-3-methyl-phenyl)pyrrolo[3,2-b]pyridin-1-yl]-3,3-dimethyl-butan-2-one]
Second: Cc1cc(-c2cnc3ccn(CC(=O)C(C)C)c3c2)ccc1F [Example 187, 1-[6-(4-Fluoro-3-methyl-phenyl)pyrrolo[3,2-b]pyridin-1-yl]-3-methyl-butan-2-one trifluoroacetate salt]
The IC50 of the first is 7.9-fold higher: 398 nM for the first, 50.1 nM for the second. The second is the more potent here.

Going from `CC(C)(C)C(=O)Cn1ccc2ncc(-c3cc(F)cc(F)c3)cc21` [Example 142, 1-[6-(3,5-Difluorophenyl)pyrrolo[3,2-b]pyridin-1-yl]-3,3-dimethyl-butan-2-one] to `CC(C)(C)C(=O)Cn1ccc2ncc(-c3cccc(C(F)F)c3)cc21` [Example 144, 1-[6-[3-(Difluoromethyl)phenyl]pyrrolo[3,2-b]pyridin-1-yl]-3,3-dimethyl-butan-2-one], the IC50 rises from 501 nM to 2000 nM (4-fold). The first is the more potent here.

Compared with `Cc1csc(-c2cnc3ccn(CC(=O)C(C)(C)C)c3c2)c1` [Example 143, 3,3-Dimethyl-1-[6-(4-methyl-2-thienyl)pyrrolo[3,2-b]pyridin-1-yl]butan-2-one], `Cc1csc(-c2cnc3ccn(CC(=O)NC4CC4)c3c2)c1` [Example 153, N-Cyclopropyl-2-[6-(4-methyl-2-thienyl)pyrrolo[3,2-b]pyridin-1-yl]acetamide trifluoroacetate salt] is 13-fold lower in IC50: 794 nM for the first, 63.1 nM for the second. The second is the more potent here.

Compared with `CCc1cccc(-c2cnc3ccn(CC(=O)C(C)(C)C)c3c2)c1` [Example 145, 1-[6-(3-Ethylphenyl)pyrrolo[3,2-b]pyridin-1-yl]-3,3-dimethyl-butan-2-one], `CCc1cccc(-c2cnc3c(Cl)cn(CC(=O)N(C)C)c3c2)c1` [Example 151, 2-[3-Chloro-6-(3-ethylphenyl)pyrrolo[3,2-b]pyridin-1-yl]-N,N-dimethyl-acetamide] is 6.3-fold lower in IC50: 501 nM for the first, 79.4 nM for the second. The second is the more potent here.

First: Cc1cc(-c2cnc3c(Cl)cn(CC(=O)N(C)C)c3c2)ccc1F [Example 146, 2-[3-Chloro-6-(4-fluoro-3-methyl-phenyl)pyrrolo[3,2-b]pyridin-1-yl]-N,N-dimethyl-acetamide]
Second: CN(C)C(=O)Cn1cc(Cl)c2ncc(-c3ccc(F)c(F)c3)cc21 [Example 147, 2-[3-Chloro-6-(3,4-difluorophenyl)pyrrolo[3,2-b]pyridin-1-yl]-N,N-dimethyl-acetamide]
The IC50 of the first is 20-fold higher: 1000 nM for the first, 50.1 nM for the second.

Going from `CN(C)C(=O)Cn1cc(Cl)c2ncc(-c3cc(F)cc(F)c3)cc21` [Example 148, 2-[3-Chloro-6-(3,5-difluorophenyl)pyrrolo[3,2-b]pyridin-1-yl]-N,N-dimethyl-acetamide] to `CN(C)C(=O)Cn1cc(Cl)c2ncc(-c3cc(F)c(F)c(F)c3)cc21` [Example 152, 2-[3-Chloro-6-(3,4,5-trifluorophenyl)pyrrolo[3,2-b]pyridin-1-yl]-N,N-dimethyl-acetamide], the IC50 rises from 50.1 nM to 100 nM (2-fold). The first is the more potent here.

Compared with `Cc1csc(-c2cnc3c(Cl)cn(CC(=O)N(C)C)c3c2)c1` [Example 149, 2-[3-Chloro-6-(4-methyl-2-thienyl)pyrrolo[3,2-b]pyridin-1-yl]-N,N-dimethyl-acetamide], `Cc1cc(-c2cnc3c(Cl)cn(CC(=O)NC4CC4)c3c2)ccc1F` [Example 176, 2-[3-Chloro-6-(4-fluoro-3-methyl-phenyl)pyrrolo[3,2-b]pyridin-1-yl]-N-cyclopropyl-acetamide trifluoroacetate salt] is 1.6-fold lower in IC50: 50.1 nM for the first, 31.6 nM for the second.

Going from `Cc1cccc(-c2cnc3ccn(CC(=O)NC4CC4)c3c2)c1C` [Example 154, N-Cyclopropyl-2-[6-(2,3-dimethylphenyl)pyrrolo[3,2-b]pyridin-1-yl]acetamide trifluoroacetate salt] to `Cc1ccccc1-c1cnc2ccn(CC(=O)NC3CC3)c2c1` [Example 160, N-Cyclopropyl-2-[6-(o-tolyl)pyrrolo[3,2-b]pyridin-1-yl]acetamide], the IC50 falls from 398 nM to 200 nM (2-fold). The second is the more potent here.

Going from `Cc1cccc(-c2cnc3ccn(CC(=O)NC4CC4)c3c2)c1` [Example 155, N-Cyclopropyl-2-[6-(m-tolyl)pyrrolo[3,2-b]pyridin-1-yl]acetamide trifluoroacetate salt] to `O=C(Cn1ccc2ncc(-c3ccccc3)cc21)NC1CC1` [Example 158, N-Cyclopropyl-2-(6-phenylpyrrolo[3,2-b]pyridin-1-yl)acetamide trifluoroacetate salt], the IC50 rises from 251 nM to 631 nM (2.5-fold).

`O=C(Cn1ccc2ncc(-c3ccc(Cl)c(Cl)c3)cc21)NC1CC1` [Example 156, N-Cyclopropyl-2-[6-(3,4-dichlorophenyl)pyrrolo[3,2-b]pyridin-1-yl]acetamide trifluoroacetate salt] and `O=C(Cn1ccc2ncc(-c3ccc(F)cc3)cc21)NC1CC1` [Example 168, N-Cyclopropyl-2-[6-(4-fluorophenyl)pyrrolo[3,2-b]pyridin-1-yl]acetamide] are within 1.5-fold of each other in IC50: 200 nM for the first, 251 nM for the second.

Going from `Cc1c(-c2cnc3ccn(CC(=O)NC4CC4)c3c2)cccc1C(F)(F)F` [Example 157, N-Cyclopropyl-2-[6-[2-methyl-3-(trifluoromethyl)phenyl]pyrrolo[3,2-b]pyridin-1-yl]acetamide trifluoroacetate salt] to `Cc1c(-c2cnc3ccn(CC(=O)N4CCC4)c3c2)cccc1C(F)(F)F` [Example 167, 1-(Azetidin-1-yl)-2-[6-[2-methyl-3-(trifluoromethyl)phenyl]pyrrolo[3,2-b]pyridin-1-yl]ethanone trifluoroacetate salt], the IC50 falls from 251 nM to 39.8 nM (6.3-fold).

`Cc1c(F)ccc(-c2cnc3ccn(CC(=O)NC4CC4)c3c2)c1C` [Example 159, N-Cyclopropyl-2-[6-(4-fluoro-2,3-dimethyl-phenyl)pyrrolo[3,2-b]pyridin-1-yl]acetamide trifluoroacetate salt] and `Cc1cc(F)ccc1-c1cnc2ccn(CC(=O)NC3CC3)c2c1` [Example 161, N-Cyclopropyl-2-[6-(4-fluoro-2-methyl-phenyl)pyrrolo[3,2-b]pyridin-1-yl]acetamide trifluoroacetate salt] are within 1.5-fold of each other in IC50: 251 nM for the first, 200 nM for the second.

Going from `Cc1ccccc1-c1cnc2ccn(CC(=O)N3CCC3)c2c1` [Example 162, 1-(Azetidin-1-yl)-2-[6-(o-tolyl)pyrrolo[3,2-b]pyridin-1-yl]ethanone trifluoroacetate salt] to `Cc1cccc(-c2cnc3ccn(CC(=O)N4CCC4)c3c2)c1C` [Example 165, 1-(Azetidin-1-yl)-2-[6-(2,3-dimethylphenyl)pyrrolo[3,2-b]pyridin-1-yl]ethanone trifluoroacetate salt], the IC50 falls from 100 nM to 63.1 nM (1.6-fold).

`Cc1cc(F)ccc1-c1cnc2ccn(CC(=O)N3CCC3)c2c1` [Example 163, 1-(Azetidin-1-yl)-2-[6-(4-fluoro-2-methyl-phenyl)pyrrolo[3,2-b]pyridin-1-yl]ethanone trifluoroacetate salt] and `Cc1c(F)ccc(-c2cnc3ccn(CC(=O)N4CCC4)c3c2)c1C` [Example 164, 1-(Azetidin-1-yl)-2-[6-(4-fluoro-2,3-dimethyl-phenyl)pyrrolo[3,2-b]pyridin-1-yl]ethanone trifluoroacetate salt] are within 1.5-fold of each other in IC50: 79.4 nM for the first, 63.1 nM for the second.

Compared with `Cc1cc(-c2cnc3c(C)cn(CC(=O)N4CCC4)c3c2)ccc1F` [Example 169, 1-(Azetidin-1-yl)-2-[6-(4-fluoro-3-methyl-phenyl)-3-methyl-pyrrolo[3,2-b]pyridin-1-yl]ethanone trifluoroacetate salt], `Cc1cc(-c2cnc3c(F)cn(CC(=O)N4CC(F)(F)C4)c3c2)ccc1F` [Example 185, 1-(3,3-Difluoroazetidin-1-yl)-2-[3-fluoro-6-(4-fluoro-3-methyl-phenyl)pyrrolo[3,2-b]pyridin-1-yl]ethanone] is 2-fold lower in IC50: 200 nM for the first, 100 nM for the second. The second is the more potent here.

Compared with `CCCCn1ccc2ncc(-c3ccc(F)c(C)c3)cc21` [Example 170, 1-Butyl-6-(4-fluoro-3-methyl-phenyl)pyrrolo[3,2-b]pyridine trifluoroacetate salt], `Cc1cc(-c2cnc3ccn(CCC(C)C)c3c2)ccc1F` [Example 171, 6-(4-Fluoro-3-methyl-phenyl)-1-isopentyl-pyrrolo[3,2-b]pyridine trifluoroacetate salt] is 1.6-fold lower in IC50: 316 nM for the first, 200 nM for the second. The second is the more potent here.

First: Cc1cc(-c2cnc3ccn(Cc4cccnc4)c3c2)ccc1F [Example 172, 6-(4-Fluoro-3-methyl-phenyl)-1-(3-pyridylmethyl)pyrrolo[3,2-b]pyridine trifluoroacetate salt]
Second: Cc1cc(-c2cnc3ccn(Cc4ccncc4)c3c2)ccc1F [Example 179, 6-(4-Fluoro-3-methyl-phenyl)-1-(4-pyridylmethyl)pyrrolo[3,2-b]pyridine trifluoroacetate salt]
The IC50 of the first is 16-fold higher: 794 nM for the first, 50.1 nM for the second. The second is the more potent here.

Compared with `Cc1cc(-c2cnc3ccn(CC4CC4)c3c2)ccc1F` [Example 174, 1-(Cyclopropylmethyl)-6-(4-fluoro-3-methyl-phenyl)pyrrolo[3,2-b]pyridine trifluoroacetate salt], `Cc1cc(-c2cnc3ccn(CC(=O)C4CC4)c3c2)ccc1F` [Example 186, 1-Cyclopropyl-2-[6-(4-fluoro-3-methyl-phenyl)pyrrolo[3,2-b]pyridin-1-yl]ethanone trifluoroacetate salt] is 4-fold lower in IC50: 158 nM for the first, 39.8 nM for the second. The second is the more potent here.

Going from `Cc1cc(-c2cnc3ccn(CCn4cccn4)c3c2)ccc1F` [Example 181, 6-(4-Fluoro-3-methyl-phenyl)-1-(2-pyrazol-1-ylethyl)pyrrolo[3,2-b]pyridine trifluoroacetate salt] to `Cc1cc(-c2cnc3ccn(Cc4ncccn4)c3c2)ccc1F` [Example 183, 6-(4-Fluoro-3-methyl-phenyl)-1-(pyrimidin-2-ylmethyl)pyrrolo[3,2-b]pyridine trifluoroacetate salt], the IC50 falls from 794 nM to 31.6 nM (25-fold). The second is the more potent here.

In the case of `O=C(Cn1cc(F)c2ncc(-c3ccc(Cl)s3)cc21)N1CCC1` [Example 182, 1-(Azetidin-1-yl)-2-[6-(5-chloro-2-thienyl)-3-fluoro-pyrrolo[3,2-b]pyridin-1-yl]ethanone], the IC50 is reported as 3980 nM.

`CN(C)C(=O)Cn1cc(Cl)c2ncc(-c3cccc(C(F)F)c3)cc21` [Example 150, 2-[3-Chloro-6-[3-(difluoromethyl)phenyl]pyrrolo[3,2-b]pyridin-1-yl]-N,N-dimethyl-acetamide] gave a pIC50 of 7.3.

Reference: US10377753B2, “Substituted 4-azaindoles and their use as GluN2B receptor modulators” (Janssen Pharmaceutica NV, priority 2015, dated 2019)
